This assay has as its system Staphylococcus epidermidis. Nature of the assay: Antimicrobial testing, zones of inhibition around saturated discs on agar plates. As to conditions: positive control disc, all test plates. Format: cell-based.

Method: Each disc was saturated with different test materials and zones of inhibition were measured after plates were incubated for 24 and 48 hours.
The synthesized microparticles were also tested for their antimicrobial activity against Staphylococcus epidermidis, a substitute for the pathogenic Staphylococcus aureus.

As for `[H]/N=C(/N)N[C@H]1[C@H](O)[C@@H](O)[C@H](O[C@@H]2O[C@@H](C)[C@](O)(C=O)[C@H]2O[C@@H]2O[C@@H](CO)[C@H](O)[C@@H](O)[C@@H]2NC)[C@@H](N/C(N)=N\[H])[C@@H]1O` [Streptomycin], the zone of inhibition result is recorded as “large, consistent zone of inhibition”.

The values are drawn from patent publication US20140037742A1, “ALGINATE MICROPARTICLES AND METHODS OF USING THE SAME” (priority 2012, published 2014).
